Experimental data taken from patent US10814612B2, “Use of thiazolide compounds for the prevention and treatment of viral diseases, cancer and diseases caused by intracellular infections” (priority 2011, dated 2020).
Like-named read-outs stand apart in the source and are kept apart here.

What was measured:
[1] = tested on: Toll-Like Receptor signalling pathway; experiment: TLR pathway Real-time PCR array (84 genes) in PBMC; type: cell-based, human; details: 3 hours
CD4+ T cells = experiment: T helper functions: IFNγ- and IL2-secreting CD4+ T cells; type: cell-based, human; details: for IFN-γ production by CD4+ T cells: 0.5 μg/ml
CD8+ T cells = experiment: CTL activity: perforin-, granzyme- and Fas-expressing CD8+ T cells; type: cell-based, human; details: for percentage of Fas-expressing CD8+ T cells: 20 and 40 μg/ml
[2] = tested on: Type I interferon signalling pathway; experiment: Type I interferon pathway Real-time PCR array (84 genes) in PBMC; type: cell-based, human
CD14+ cells (monocytes) = type: cell-based, human
[3] = tested on: RNA and DNA viruses including influenza A and hepatitis C viruses; details: cited from earlier work
[4] = humans, cited from earlier work
[5] = tested on: rotavirus gastroenteritis, norovirus gastroenteritis and chronic hepatitis C; details: clinical trials; cited from earlier work
[6] = flu-stimulated PBMC, all doses tested
[7] = flu-stimulated PBMC, 3 hours, 1 μg/ml
[8] = all five doses, unstimulated and flu-stimulated
[9] = after oral nitazoxanide or nitazoxanide plus tizoxanide
[10] = PMBCs, TIZ 0.5, 1.0 and 10 mg/ml, FIG. 3A

With O=C(Nc1ncc(Cl)s1)c1ccccc1O [RM-4848, N-(5-chlorothiazol-2-yl)-2-hydroxybenzamide] the “INFA1 mRNA fold increase” value ([1]; flu-stimulated PBMC, 1 μg/ml) was ~6 fold, the “INFB1 mRNA fold increase” value ([1]; flu-stimulated PBMC, 1 μg/ml) was ~6 fold and the “TLR3 mRNA fold increase” value ([1]; flu-stimulated PBMC, 1 μg/ml) was ~7 fold. The “TLR5 mRNA fold increase” value ([1]; flu-stimulated PBMC, 1 μg/ml) was ~7 fold, the “TLR9 mRNA fold increase” value ([1]; flu-stimulated PBMC, 20 μg/ml) was ~6 fold and the “TLR8 mRNA fold change” value [1, 6] was > 2 fold. The “TLR-7 mRNA fold change” value [1, 6] was > 2 fold, the “IL1A mRNA fold increase” value ([1]; un-stimulated PBMC, 20 μg/ml) was ~5 fold and the “IL1B mRNA fold increase” value ([1]; un-stimulated PBMC, 20 μg/ml) was ~5 fold. The “IL6 mRNA fold increase” value ([1]; un-stimulated PBMC, 20 μg/ml) was ~6 fold, the “IFN-γ production by CD4+ T cells” value (CD4+ T cells; Flu-stimulated conditions, p=0.050) was “statistically significant upregulation” and the “IFN-γ production by CD4+ T cells” value (CD4+ T cells; un-stimulated cells, p=0.035) was “statistically significant upregulation”. The “percentage of Fas-expressing CD8+ T cells” value (CD8+ T cells; Flu-stimulated, p=0.003) was “statistically significantly increased”, the “degranulation of CTLs, evaluated by reduction in perforin expression” value (CD8+ T cells; three higher dose levels tested) was “induced a degranulation” and the “percentage of Fas-expressing CD8+ T cells” value (CD8+ T cells; un-stimulated, p=0.006) was “statistically significantly increased”. The “IFI27 mRNA fold increase” value ([2]; flu-stimulated PBMC, 10 μg/ml) was > 4 fold, the “IFIT1 mRNA fold increase” value ([2]; flu-stimulated PBMC, 10 μg/ml) was > 4 fold and the “IFNA2 mRNA fold increase” value [2, 7] was 6 fold. The “INFA1 mRNA fold increase” value [2, 7] was 10 fold, the “INFA4 mRNA fold increase” value [2, 7] was 10 fold and the “INFB1 mRNA fold increase” value [2, 7] was 8 fold. For the same molecule, the “expression of the ISGs, IFI27 and IFIT1” value ([2]; flu-stimulated PBMC, the three dose levels (1, 10, 20 μg/ml)) was “moderately up-regulated”, the “Type I IFN inducible genes (CD70, COL16A1, HSPA1L, IFI27, IFIT1, NRG1 and SHB)” value ([2]; summary of Examples 4-8) was “upregulated” and the “INFA1 mRNA fold decrease” value ([2]; un-stimulated PBMC, 20 μg/ml) was 20 fold. The “INFA2 mRNA fold decrease” value ([2]; un-stimulated PBMC, 20 μg/ml) was 15 fold, the “INFA4 mRNA fold decrease” value ([2]; un-stimulated PBMC, 20 μg/ml) was 10 fold and the “INFB1 mRNA fold decrease” value ([2]; un-stimulated PBMC, 20 μg/ml) was 15 fold. The “down-regulating effects on interferon genes” value ([2]; un-stimulated PBMC, two lower doses of 1 and 10 μg/ml) was “not seen”, the “TLR3-expressing CD14+ cells” value (CD14+ cells (monocytes); [8]) was “no effect” and the “TLR8-expressing CD14+ cells” value (CD14+ cells (monocytes); [8]) was “no effect”. For the same molecule, the “percentage of TLR7-expressing CD14+ cells compared to control” value (CD14+ cells (monocytes); flu-antigenic stimulation, 1.0 μg/ml dose: p=0.001, 10 μg/ml dose: p=0.023) was “increase” and the “percentage of TLR7-expressing CD14+ cells compared to control” value (CD14+ cells (monocytes); unstimulation condition) was “no significative differences”.

For O=C(Nc1ncc([N+](=O)[O-])s1)c1ccccc1O [Tizoxanide], the “replication of RNA and DNA viruses including influenza A and hepatitis C viruses” value [3] is listed as “inhibit replication”, the “IFNγ-secreting CD4+ T cells” value (CD4+ T cells; PMBCs, TIZ 0.5, 1.0 and 10 mg/ml, unstimulated and flu-stimulated, FIG. 4A) is listed as “increase” and the “IL2-secreting CD4+ T cells” value (CD4+ T cells; PMBCs, TIZ 0.5, 1.0 and 10 mg/ml, unstimulated and flu-stimulated, FIG. 4B) is listed as “increase”. The half-life in plasma [4, 9] was “approximately 1.5 hours”, the urinary elimination half-life [4, 9] was 7.3 h and the plasma protein binding [4] was “bound to plasma proteins”. For the same molecule, the CTL degranulation (CD8+ T cells; PMBCs, TIZ 0.5, 1.0 and 10 mg/ml, FIG. 5B) was “increase”, the “Fas-expressing CD8+ T cells” value (CD8+ T cells; PMBCs, TIZ 0.5, 1.0 and 10 mg/ml, FIG. 5C) was “increase” and the IFNα-mRNA expression [2, 10] was “increase”. For the same molecule, the IFNβ-mRNA expression [2, 10] was “increase”, the “mRNA specific for type I IFN inducible genes (MXA, PRKCZ, ADAR, CXCL10, IRF1, PRKRA)” value ([2]; PMBCs, TIZ 0.5, 1.0 and 10 mg/ml, FIG. 3B) was “increase” and the “mRNA specific for gene involved in MHC class I presentation (HLA-A, HLA-B, TAP1)” value ([2]; PMBCs, TIZ 0.5, 1.0 and 10 mg/ml, FIG. 3C) was “increase”. For the same molecule, the “TLR3- expression on monocytes” value (CD14+ cells (monocytes)) was “increase”, the “TLR7- expression on monocytes” value (CD14+ cells (monocytes)) was “increase” and the “TLR8- expression on monocytes” value (CD14+ cells (monocytes)) was “increase”.

For CC(=O)Oc1ccccc1C(=O)Nc1ncc([N+](=O)[O-])s1 [Nitazoxanide, 2-(acetolyloxy)-N-(5-nitro-2-thiazolyl) benzamide], the “replication of RNA and DNA viruses including influenza A and hepatitis C viruses” value [3] is given as “inhibit replication”, the “effectiveness in treating chronic hepatitis C” value [5] is given as “effective” and the “effectiveness in treating norovirus gastroenteritis” value [5] is given as “effective”. For the same molecule, the “effectiveness in treating rotavirus gastroenteritis” value [5] was “effective”.
